“Also recorded” adds a separate entry of the source. Read-outs that look alike come from different tables or passages of the source.

We go through 3 compounds from US10471025B2, “Compositions for use in treating parkinson's disease and related disorders” (Technophage, Investigação E Desenvolvimento Em …, priority 2015, dated 2019).

In data set [1] the test system is 6-OHDA treated zebrafish larvae. In words: Locomotor behavior rescue (total distance moved, number of jumps) in 6-OHDA zebrafish PD model. The conditions noted are these: for Optimal concentration: behavioral experiments and TH+ cell counts; for Effective concentration / peak, small range plot: phenotype recovery, total distance moved. It counts as in vivo. The source says:
To model Parkinson ̆s disease (PD), a neurotoxin 6-OHDA (6-hyroxydopamine) based method was used in zebrafish and in mice. In this model, 6-OHDA-lesions induce motor manifestations in zebrafish and in mice, such as reduced locomotor ability, and the loss of dopaminergic neurons. Based on the 6-OHDA PD zebrafish model, compounds from a small molecules library were screened for rescue of the parkinsonian phenotype (Example 1, see below).
The screen was based on both the recovery of impaired locomotor behavior and dopaminergic neuronal loss.
Values were normalized for the mean of disease state in each experiment (disease=1). Each plot contains data from 3 independent experiments with a total of 24 larvae. As a control, zebrafish were treated with only the vehicle, ascorbic acid.
For these experiments, Tubingen (TU) wild-type zebrafish, a specific strain of wild-type zebrafish, were used.

The test system is the same in data set [2]. Briefly: Rescue of Tyrosine hydroxylase (TH)-positive dopaminergic neurons in 6-OHDA zebrafish larvae. In kind it is in vivo. The settings on record: for Neurorescue: TH+ neurons at optimal dose, p; for Neuroprotective effect / recovery of TH+ neurons: at the optimal concentration of each molecule. As to the method: The 7 candidates also were tested in terms of rescue of dopaminergic neurons positive for Tyrosine hydroxylase (Th) in the substancia nigra pars compacta of the test animals. […] Results were normalized for healthy control values (healthy control=100% of neurons). As a control, zebrafish were treated with only the vehicle, ascorbic acid. ‘6-OHDA_ represents results in zebrafish receiving no treatment.
FIGS. 6E-6G show representative Z-projections of confocal stacks of whole-mount anti-TH immunohistochemistry in 6 days post-fertilization (dpf) of zebrafish larvae (age of the fish) control (FIG. 6E), 6-OHDA (FIG. 6F), and tapentadol treated-larvae (FIG. 6G).

Data set [3] shares this test system. Briefly: Freezing (duration of freezing periods, light/dark stimulus) in 6-OHDA zebrafish larvae. It counts as in vivo. The settings on record: for Duration of freezing periods, recovery vs 6-OHDA treated larvae: tapentadol 48.5, stavudine 50, nabumetone 0.91 μM, L-Dopa treatment. As to the method:
In the zebrafish model, the locomotor impairment was measured and related with bradykinesia in patients. Tests included evaluating ‘freezing_ in response to a light/dark stimulus. 6-OHDA induced larvae had fewer freezing episodes but spent longer periods in the frozen state. In previous studies, the duration of freezing episodes has been analyzed in PD patients. […] Nonetheless, it is an inhibitor of the neuronal dopamine transporter and since 6-OHDA needs DAT to enter the neuron and induce the disease, methylphenidate may be a false positive.
As FIGS. 9B-9C show, freezing recovery was tested using 7 candidate molecules at optimal concentrations, in an exemplary experiment with n=8 fish, and methylphenidate and amantadine at 25 ? M.

The subject of data set [4] is 6-OHDA mouse model. In words: Cylinder test, 6-OHDA mice (Example 5). It counts as in vivo. Set-up: Cylinder test: number of right turns: dose or concentration left out as unconfirmed. The conditions noted are these: for Cylinder test: number of rearings / Cylinder test: percentage of animals with tremor / Cylinder test: percentage of contralateral paw use: vs 6-OHDA group, daily i.p.

Data set [5] relates to 6-OHDA mouse model. Briefly: Abnormal involuntary movements, 6-OHDA mice (Example 5). In kind it is in vivo. The conditions noted are these: mouse, in vivo. How it is done: This condition results in a range of involuntary movements that can be evaluated by video tracking analyses. […] Evaluations were performed during two independent trials, 30 and 90 minutes after treatment administration. […] Nonetheless, forelimb and orofacial involuntary movements are extremely hard to detect, and reading errors occur, considering the size of the animals. Total abnormal involuntary movements are the sum of all 4 different involuntary movements evaluated and is the parameter often reported in the literature.
As FIGS. 17A-17F show, abnormal involuntary movements were evaluated using the cylinder test 28 days post injection. […] Values mean ě SEM (n=5-8).

Data set [6] has as its system 6-OHDA mouse model. In words: Open field test, 6-OHDA mice (Example 5). The settings on record: 9 days post lesion, vs 6-OHDA group. It counts as in vivo. How it is done: Open field testing evaluates mainly spontaneous activity. […] Four different parameters were recorded: maximum velocity (FIGS. 18A, 19A, and 20A), total distance moved (FIGS. 18B, 19B, and 20B), mean velocity (FIGS. 18C, 19C, and 20C), and latency to first reach the walls (FIGS. 18D, 19D, and 20D). All parameters were determined by the analysis of a 5 minute video, recorded 30 minutes after therapeutic administration. Values mean ě SEM (n=3-8).
For total distance moved (FIGS. 18B, 19B, and 20B) and mean velocity (FIGS. 18C, 19C, and 20C), an hour video also was analyzed for an animal per group, to evaluate the effect of the drug with time. For these analyses, a 5 minute video prior to therapeutic administration also was taken. […] Ethovision V10 system was used for making the videos for analysis.

The conditions of data set [7]: in water; cited from earlier work.
In data set [8] the test system is rat. The conditions noted are these: rat, cited from earlier work.
The subject of data set [9] is 6-OHDA treated zebrafish larvae. In words: LD50 / lethality in the disease context of the zebrafish model.
For data set [10] the test system is unchanged. In words: Co-administration with L-Dopa, total distance 6-OHDA larvae move. It counts as in vivo. The settings on record: total distance; L-Dopa 250 or 125 μM.
For data set [11] the following is noted: sc; cited from earlier work.
The conditions of data set [12]: in vivo, cited from earlier work.
Data set [13] deals with 6-OHDA mouse model. In words: Rotarod test, unilateral striatal 6-OHDA mice (Example 5). It counts as in vivo. The conditions noted are these: daily i.p., dosages tested (C1 and C2).
For data set [14] the following is noted: cited from earlier work.
The conditions of data set [15]: 0.01 to 11.4 μg/mL; cited from earlier work.
In data set [16] the test system is CY P1A2, CY P2C9, CY P2C19, CY P2D6, and CY P3A4. The conditions noted are these: cited from earlier work.
Data set [17] relates to mouse. The settings on record: mouse, in vivo, cited from earlier work.
The test system of data set [18] is dogs. The conditions noted are these: dog, in vivo, cited from earlier work.
[19] abbreviates: 6-OHDA disease-induced zebrafish larvae.

`N[C@@H](Cc1ccc(O)c(O)c1)C(=O)O` [L-Dopa, Levodopa]: in data set [1], the Optimal concentration came out at 250 µM and the “Effective concentration / peak, small range plot” value stood at 100 µM. In data set [2], the Neurorescue entry is given as “no” and the “Neuroprotective effect / recovery of TH+ neurons” value (from here on “Neuroprotective effect / recovery”) is recorded as “does not induce the recovery of TH+ neurons”. The “Neuroprotection of TH+ neurons” value in data set [2] (where the disease is less severe (sig *), preliminary) is “can be neuroprotective”. In [3], the “Duration of freezing periods, recovery vs 6-OHDA treated larvae” value is “no recovery”. For the same compound, in data set [4], the “Cylinder test: number of rearings” value is reported as “no difference”, the “Cylinder test: percentage of animals with tremor” value is given as “motor recovery was observed” and the “Cylinder test: percentage of contralateral paw use” value is listed as “motor recovery was observed”. Besides, in data set [5], the “Induction of abnormal involuntary movements” value is listed as “induced these involuntary movements”. Moreover, the “Open field: latency to first reach the walls” value in [6] is on record as “did not show motor improvement”. Moreover, the Solubility in data set [7] is 3.3 mg/ml in. For the same compound, the LD50 in data set [8] (in vivo, po) is on record as 1780 mg/kg. Also, the LD50 in data set [9] (setting [19]) was >5 mM.
For the compound `C#CCN[C@@H]1CCc2ccccc21` [Rasagiline], in data set [1], the “Effective concentration / peak, small range plot” value turned out to be 25 µM. Besides, in data set [2], the Neurorescue result is listed as “confirmed P < 0.11” and the “Neuroprotective effect / recovery” value was “confirmed”. For the same compound, the “Effect of co-administration with L-Dopa on locomotor recovery” value in [10] is recorded as “increased effect”. In [7], the Solubility is 53 mg/ml in. Also, the LD50 in data set [8] is 300 mg/kg. In addition, the Effective rat dose in [11] is reported as 0.8 mg/kg/day. In addition, in data set [12] (po), the Oral bioavailability is 35%. Moreover, the Half-life in data set [12] is 1.5 to 3.5 h. The LD50 in data set [9] (setting [19]) is 187.5 | M.
`Cc1cn([C@H]2C=C[C@@H](CO)O2)c(=O)[nH]c1=O` [stavudine]: in data set [1] (6-OHDA zebrafish larvae), the Therapeutic window is 50 to 70 µM. This compound came in with an Optimal concentration in data set [1] of 50 µM. Also, the “Number of jumps: concentration validated as recovering the 6-OHDA induced behavior” value in data set [1] (zebrafish, in vivo) stood at 50 µM. Further, in data set [1] (zebrafish, in vivo), the “Total distance travelled, difference between treated larvae and disease control” value stood at 400 mm. For the same compound, the Neurorescue entry in data set [2] is given as “confirmed p < 0.09”. Besides, in [2], the “Neuroprotective effect / recovery” value is “confirmed”. Further, in data set [3] (optimal concentrations, methylphenidate 25 μM), the Freezing recovery entry was “positive results; also recorded: reverted freezing”. The “Duration of freezing periods, recovery vs 6-OHDA treated larvae” value in data set [3] is reported as “recovered”. Moreover, in [10], the “Effect of co-administration with L-Dopa on locomotor recovery” value is “not affected; also recorded: least effective; also recorded: not influenced”. The “Rotarod: latency to fall and speed, recovery” value in data set [13] is listed as “did not have an effect”. In addition, the “Cylinder test: number of right turns” value in data set [4] (parameter disregarded) was “phenotypic recovery in a very similar way to L-Dopa”. For the same compound, the “Cylinder test: number of rearings” value in data set [4] is reported as “did not show recovery”. For the same compound, the “Cylinder test: percentage of animals with tremor” value in data set [4] is “did not show recovery”. Besides, in data set [4], the “Cylinder test: percentage of contralateral paw use” value is “did not show recovery”. Further, the “Induction of abnormal involuntary movements” value in data set [5] is reported as “None of the treatments, tapentadol or stavudine of the combination, induced involuntary movements”. Moreover, in data set [14] (HIV-infected adult and pediatric patients, 1-hour IV infusion), the Clearance was 594 ± 164 mL/min. The “Accumulation with repeated administration” value in data set [14] (every 6, 8, or 12 hours) is recorded as “no significant accumulation”. The Renal clearance in data set [14] (healthy subjects receiving 80 mg PO) is given as 272 mL/min. Besides, in [14] (humans, regardless of the route), the “Renal elimination, share of the overall clearance” value is “about 40%”. Moreover, the Half-life in data set [14] (in adults) is 48 to 90 min. Further, the “Time of peak plasma concentrations after dosing” value in data set [14] (oral administration) was ≤ 1 h. Further, the Protein binding result in data set [15] is on record as “negligible”. Further, the “Inhibition of major cytochrome P450 isoforms” value in data set [16] is on record as “not considered to inhibit”. Moreover, the LD50 in data set [8] (in vivo, iv) is 1,200 mg/kg; in data set [8] (in vivo, po), 4,000 mg/kg; in data set [8], 4000 mg/kg (rat); in data set [17] (iv), 1,000 mg/kg; in data set [17] (po), 1,000 mg/kg; in [18] (iv) it was 1,680 mg/kg. The values for the LD50 in data set [18] (po), in [9] (setting [19]) and in data set [9] (6-OHDA zebrafish larvae) were 2,000 mg/kg, >10 mM and > 10,000 μM, respectively.
